# Results reported in patent US9255085B2, “Carboxamide compounds and methods for using the same” (Rigel Pharmaceuticals, Inc., priority 2008, dated 2016).
# Molecular target: AMPK
# Test: AMPK activation, enzyme-linked immunosorbent assay
# Format: biochemical
# Details: ELISA
# Experimental: Compounds 1-13 were assayed for their ability to activate AMPK using an enzyme-linked immunosorbent assay.
# Compounds 14-16 were assayed for their ability to activate AMPK using an enzyme-linked immunosorbent assay.
# Compounds 17-18 were assayed for their ability to activate AMPK using an enzyme-linked immunosorbent assay.
# Compounds 19-22 were assayed for their ability to activate AMPK using an enzyme-linked immunosorbent assay.
# Compounds 23-26 were assayed for their ability to activate AMPK using an enzyme-linked immunosorbent assay.
# Compounds 27-33 were assayed for their ability to activate AMPK using an enzyme-linked immunosorbent assay.
# Compounds 34-42 were assayed for their ability to activate AMPK using an enzyme-linked immunosorbent assay.
smiles,measurement,setting,value
"NC(=O)c1ccc(CN2CC3CC2CN3C(=O)c2nc3ccc(OC4CCN(c5ccc(C(F)(F)F)cc5)CC4)cc3o2)cc1 (stereo not shown) [Compound 9, 4-((5-(6-(1-(4-(Trifluoromethyl)phenyl)piperidin-4-yloxy)benzo[d]oxazole-2-carbonyl)-2,5-diazabicyclo[2.2.1]heptan-2-yl)methyl)benzamide]",EC50,Table 2,100 to 1000 nM
"CC(C)(C)OC(=O)N1CCC(Oc2ncc(C(=O)NC3CCN(Cc4ccc(C#N)cc4)CC3)s2)CC1 [Compound 26, tert-Butyl 4-(5-(1-(4-cyanobenzyl)piperidin-4-ylcarbamoyl)thiazol-2-yloxy)piperidine-1-carboxylate]",EC50,Table 6,1000 to 10000 nM
"N#Cc1ccc(CN2CCc3ccc(C(=O)NC4CCN(Cc5ccc(C(F)(F)F)cc5)CC4)cc3C2)cc1 [Compound 39, 2-(4-Cyanobenzyl)-N-(1-(4-(trifluoromethyl)benzyl)piperidin-4-yl)-1,2,3,4-tetrahydroisoquinoline-7-carboxamide]",EC50,Table 8,1000 to 10000 nM
"O=C(c1nc2ccc(OC3CCN(c4ccc(C(F)(F)F)cc4)CC3)cc2o1)N1CC2CC1CN2Cc1ccncc1 (stereo not shown) [Compound 8, (5-(pyridin-4-ylmethyl)-2,5-diazabicyclo[2.2.1]heptan-2-yl)(6-(1-(4-(trifluoromethyl)phenyl)piperidin-4-yloxy)benzo[d]oxazol-2-yl)methanone]",EC50,Table 2,100 to 1000 nM
"N#Cc1ccc(CN2CCC(NC(=O)c3cnc(OC4CCN(c5ccc(C#N)cc5)CC4)s3)CC2)cc1 [Compound 24, N-(1-(4-Cyanobenzyl)piperidin-4-yl)-2-(1-(4-cyanophenyl)piperidin-4-yloxy)thiazole-5-carboxamide]",EC50,Table 6,< 100 nM
"N#Cc1ccc(CN2CCC(NC(=O)c3ccc(C(=O)N4CCN(c5ccc(C(F)(F)F)cn5)CC4)cc3)CC2)cc1 [Compound 30, N-(1-(4-Cyanobenzyl)piperidin-4-yl)-4-(4-(5-(trifluoromethyl)pyridin-2-yl)piperazine-1-carbonyl)benzamide]",EC50,Table 7,< 100 nM
"N#Cc1ccc(CN2CCC(NC(=O)c3ccc4c(c3)CN(Cc3ccc(F)cc3)CC4)CC2)cc1 [Compound 40, N-(1-(4-cyanobenzyl)piperidin-4-yl)-2-(4-fluorobenzyl)-1,2,3,4-tetrahydroisoquinoline-7-carboxamide]",EC50,Table 8,< 100 nM
